# Experimental data taken from patent US7101533B2, “Agent for inducing receptor potential” (Kabushiki Kaisha Hayashibara Seibutsu Kagaku Kenkyujo, priority 2002, dated 2006).
# System: retinal nerve cells
# Assay: intracellular calcium experimental method in cultured chick embryo retinal cells with photostimulation (Fluo-4 fluorescence and intracellular potential)
# Type: cell-based
# Source text: All the above polymethine organic dye compounds can be obtained in the desired amount either by the method disclosed in “Kanko-Shikiso” (Photosynthetic Dyes), pp. 11–31, edited by Masaaki Hayami, published by Sangyo Tosho Publisher on Oct. 17, 1997; or in accordance therewith. In case the compounds are commercially available, they can be optionally purified prior to use. Evaluation of whether organic dye compounds evoke receptor potential in response to photostimulation in the optic nerve can be determined in accordance with the intracellular calcium experiment method disclosed in “Jikken-Igaku” (Experimental Medicine), Vol. 7, No. 6, edited by Hideaki Karaki et al., published on Apr. 5, 1989 by Yodosha, Co., Ltd., Tokyo, Japan, with a modification that an organic dye compound to be tested coexists in animal retinal cells cultured in a nutrient culture medium containing a fluorescent calcium indicator, followed by detecting the intensity of fluorescence emitted from the indicator or of the electric potential generated intracellularly. […]
# Thereafter, Fluo-4 acetoxymethyl ester, commercialized by Molecular Probe, Oregon, U.S.A., a fluorescent calcium indicator, was added to each well of the culture plates to give a concentration of 10 μM, incubated at 37° C. for 30 min, and further incubated for another 30 min similarly as above except for omitting Fluo-4 acetoxymethyl ester. […] The organic dye compounds in Table 1 were respectively dissolved in dimethylsulfoxide and irradiated with a light having a wavelength of 470 to 490 nm to excite Fluo-4 acetoxymethyl ester before or after being added to each culture in each well to give a concentration of 0.0005 to 0.5 μg/ml, followed by detecting the intensity of fluorescence and the intracellular potential at a wavelength of around 510 to 550 nm emitted from the excited Fluo-4 acetoxymethyl ester. […]
smiles,measurement,setting,value
CCCC1=NN(c2ccc(S(=O)(=O)[O-])cc2)C(=O)C1=CC=C(C=Cc1c(CCC)nn(-c2ccc(S(=O)(=O)[O-])cc2)c1[O-])c1ccccc1.[Na+].[Na+].[Na+] [Chemical Formula 14],Fluorescent intensity With calcicludine,"as above, with 2.5 μM of calcicludine (antagonist of L-, N-, P-type high-threshold calcium channels)",Unchanged
same,Fluorescent intensity Without calcicludine,"chick embryo retinal nerve cells loaded with Fluo-4 acetoxymethyl ester, dye 0.0005 to 0.5 μg/ml, light 470 to 490 nm, emission around 510 to 550 nm, no calcicludine",Increased
same,Intracellular potential,"receptor potential observed as intracellular potential, dye 0.0005 to 0.5 μg/ml, light 470 to 490 nm, absence of calcicludine",Detected
